From patent US20160206688A1, “METHODS FOR TREATING BACTEREMIA AND OSTEOMYELITIS USING ORITAVANCIN” (THE MEDICINES COMPANY, priority 2013, published 2016)
≈ marks a conversion by molar mass, not a printed value. Like-named read-outs stand apart in the source and are kept apart here.

How the values were obtained:
[1] = tested on: Coagulase-negative staphylococci; assay: Broth microdilution MIC, European bacteraemia isolates 2010-2012; format: cell-based, coagulase-negative staphylococci (CoNS); conditions: Coagulase-negative staphylococci (646); for MIC Range / MIC50 / MIC90: Table 2
Experimental: (§1) A total of 2,904 clinical strains responsible for documented bacteremia among unique hospitalized patients in 38 hospitals in 11 European Union countries. Israel, Russia, Turkey and Ukraine were included in this study (2010-2012). Isolates were submitted to a central monitoring laboratory (JMI Laboratories, North Liberty. Iowa. USA), following previously established protocols. Bacterial species identification was performed by using an automated system (Vitek®2; bioMèrieux, Hazelwood, Mo., USA) or conventional biochemical algorithms, as required.
(§2) Isolates were tested for susceptibility by broth microdilution methods following the Clinical and Laboratory Standards Institute (CLSI; M07-A9, 2012) document. Susceptibility testing was performed in cation-adjusted Mueller-Hinton broth (CA-MHB) using dry-form panels manufactured by Thermo Fisher Scientific, formerly TREK Diagnostics Systems/Sensititre (Cleveland. Ohio, USA). These panels provide results equivalent to the CLSI-approved broth microdilution method supplemented with 0.002% polysorbate-80.
(§3) Quality assurance was performed by concurrent testing of CLSI-recommended (M100-S23, 2013) strains: E. faecalis ATCC 29212 and S. aureus ATCC 29213. Interpretation of comparator MIC results was in accordance with published CLSI (M100-S23) and European Committee on Antimicrobial Susceptibility Testing (EUCAST, 2013) criteria.

[2] = tested on: VRE; assay: Susceptibility of the subject's blood culture isolate (treatment history); format: cell-based
Excerpt: 11, 2013; the plan was for at least 8 weeks of antibiotic therapy.

[3] = tested on: S. aureus; assay: Broth microdilution MIC, European bacteraemia isolates 2010-2012; format: cell-based; conditions: S. aureus Methicillin-resistant (1,708); for % Resistant, EUCAST / % Susceptible, EUCAST: EUCAST 2013 breakpoints; for MIC50 / MIC90: Staphylococcus aureus; for MIC50 / MIC90 / MIC Range: Table 2
Experimental: as §1, §2, §3

[4] = tested on: E. faecium; assay: as above; format: cell-based, Enterococcus faecium; conditions: for % Susceptible, CLSI / % Resistant, CLSI: CLSI M100-S23 breakpoints; for % Resistant, EUCAST / % Susceptible, EUCAST: EUCAST 2013 breakpoints
Experimental: as §1, §2, §3

[5] = tested on: E. faecium; assay: Broth microdilution MIC, US isolates 2011-2012, blood vs non-blood; format: cell-based
Experimental: (§4) 527 E. faecalis, 176 E. faecium, and 790 BHS (335 S. pyogenes and 455 S. agalactiae) clinical, single patient, non-consecutive isolates were collected in 2011-2012 from 46 sites geographically distributed across the United States. The MICs were determined by broth microdilution testing performed in accordance with CLSI M7 and M100 guidelines. From the resulting database, this analysis focused on the activities of ORI, vancomycin (VAN), daptomycin (DAP), and linezolid (LZD) according to specimen source.

[6] = tested on: E. faecalis; assay: as above; format: cell-based
Experimental: as §4

[7] = tested on: S. pyogenes; assay: as above; format: cell-based
Experimental: as §4

[8] = tested on: S. agalactiae; assay: as above; format: cell-based
Experimental: as §4

[9] = tested on: E. faecalis; assay: Broth microdilution MIC, European bacteraemia isolates 2010-2012; format: cell-based, Enterococcus faecalis; conditions: for % susceptible: E. faecalis strains, criteria not stated; for MIC50 / MIC90: Enterococcus faecalis
Experimental: as §1, §2, §3

[10] = tested on: MDR SA; assay: Microdilution MIC against MDR SA by specimen source; format: cell-based, S. aureus
Experimental: 456 clinical, single-patient, non-consecutive, MDR SA isolates from the known specimen sources collected in 2011-2012 were analyzed. MDR was defined as resistant to ≧3 of the following: erythromycin, clindamycin, gentamicin, levofloxacin, and trimethoprim/sulfamethoxazole. 382 were MRSA and 74 were MSSA. MICs were determined by microdilution testing in accordance with CLSI M7 and M100 guidelines. Although other comparator drugs were tested, this analysis focuses on the activities of ORI, VAN, DAP, and LZD.

[11] = E. faecium Vancomycin-resistant (VanA-phenotype) (153)
[12] = E. faecium Vancomycin-susceptible (257)
[13] = Table 2, E. faecium Vancomycin-resistant (VanA-phenotype) (153)
[14] = Table 2, E. faecium Vancomycin-susceptible (257)
[15] = E. faecalis (445), CLSI M100-S23 breakpoints
[16] = Enterococcus faecium, Table 2, E. faecium Vancomycin-resistant (VanA-phenotype) (153)
[17] = Enterococcus faecium, Table 2, E. faecium Vancomycin-susceptible (257)
[18] = E. faecalis (445), EUCAST 2013 breakpoints

CCCCCCCCCC(=O)N[C@@H](Cc1c[nH]c2ccccc12)C(=O)N[C@H](CC(N)=O)C(=O)N[C@@H](CC(=O)O)C(=O)N[C@@H]1C(=O)NCC(=O)N[C@@H](CCCN)C(=O)N[C@@H](CC(=O)O)C(=O)N[C@H](C)C(=O)N[C@@H](CC(=O)O)C(=O)NCC(=O)N[C@H](CO)C(=O)N[C@@H]([C@H](C)CC(=O)O)C(=O)N[C@@H](CC(=O)c2ccccc2N)C(=O)O[C@@H]1C [Daptomycin, daptomycin]
MIC Range [1]: ≦0.06-2 mg/L
MIC50 ([1]; read-out: MIC 50%): 0.25 µg/mL (≈ 0.154 µM)
MIC90 ([1]; read-out: MIC 90%): 0.5 µg/mL (≈ 0.309 µM)
MIC ([2]; 2012 December): 6 µg/mL (≈ 3.7 µM)
MIC ([2]; 2012 July): 4 µg/mL (≈ 2.47 µM)
susceptibility ([2]; 2012 July): borderline susceptible
% Susceptible, CLSI ([3]; CLSI M100-S23 breakpoints): 100.0/— %
% Resistant, EUCAST [3]: 0.0%
% Susceptible, EUCAST [3]: 100.0%
MIC50 ([3]; read-out: MIC 50%): 0.25 µg/mL (≈ 0.154 µM)
MIC90 ([3]; read-out: MIC 90%): 0.5 µg/mL (≈ 0.309 µM)
MIC Range [3]: 0.12 to 1 µg/mL
% Susceptible, CLSI [4, 11]: 100.0/— %
% Susceptible, CLSI [4, 12]: 100.0/— %
MIC50 ([4]; Enterococcus faecium, Table 2, E. faecium Vancomycin-resistant (VanA-phenotype) (153), read-out: MIC 50%): 2 µg/mL (≈ 1.23 µM)
MIC90 ([4]; Enterococcus faecium, Table 2, E. faecium Vancomycin-resistant (VanA-phenotype) (153), read-out: MIC 90%): 2 µg/mL (≈ 1.23 µM)
MIC90 ([4]; Enterococcus faecium, Table 2, E. faecium Vancomycin-susceptible (257), read-out: MIC 90%): 2 µg/mL (≈ 1.23 µM)
MIC Range [4, 13]: 0.25 to 4 µg/mL
MIC 50% [4, 14]: 2 µg/mL (≈ 1.23 µM)
MIC Range [4, 14]: 0.12 to 4 µg/mL
% susceptible ([4]; VanA-phenotype E. faecium, criteria not stated): 100%
MIC90 ([5]; Blood, N 84): 4 µg/mL (≈ 2.47 µM)
MIC90 ([5]; Non-Blood, N 92): 4 µg/mL (≈ 2.47 µM)
MIC90 ([6]; Blood, N 116): 2 µg/mL (≈ 1.23 µM)
MIC90 ([6]; Non-Blood, N 411): 2 µg/mL (≈ 1.23 µM)
MIC90 ([7]; Blood, N 53): 0.06 µg/mL (≈ 0.037 µM)
MIC90 ([7]; Non-Blood, N 282): 0.06 µg/mL (≈ 0.037 µM)
MIC90 ([8]; Blood, N 100): 0.25 µg/mL (≈ 0.154 µM)
MIC90 ([8]; Non-Blood, N 355): 0.25 µg/mL (≈ 0.154 µM)
% Susceptible, CLSI [9, 15]: 100.0/— %
% susceptible [9]: 100%
MIC50 ([9]; Table 2, E. faecalis (445), read-out: MIC 50%): 1 µg/mL (≈ 0.617 µM)
MIC90 ([9]; Table 2, E. faecalis (445), read-out: MIC 90%): 1 µg/mL (≈ 0.617 µM)
MIC Range ([9]; Table 2, E. faecalis (445), includes four VanA-phenotype strains): ≦0.06-4 mg/L
MIC50 ([10]; Blood, n = 108): 0.5 µg/mL (≈ 0.309 µM)
MIC90 ([10]; Blood, n = 108): 0.5 µg/mL (≈ 0.309 µM)
Mode (MIC) ([10]; Blood, n = 108): 0.5 µg/mL
Range (MIC) ([10]; Blood, n = 108, in µg/mL): 0.25-4
MIC50 ([10]; Respiratory, N = 157): 0.5 µg/mL (≈ 0.309 µM)
MIC90 ([10]; Respiratory, N = 157): 0.5 µg/mL (≈ 0.309 µM)
Mode (MIC) ([10]; Respiratory, N = 157): 0.5 µg/mL
Range (MIC) ([10]; Respiratory, N = 157, in µg/mL): 0.12-1
MIC50 ([10]; Skin/Wound, N = 191): 0.5 µg/mL (≈ 0.309 µM)
MIC90 ([10]; Skin/Wound, N = 191): 0.5 µg/mL (≈ 0.309 µM)
Mode (MIC) ([10]; Skin/Wound, N = 191): 0.5 µg/mL
Range (MIC) ([10]; Skin/Wound, N = 191): ≦0.06-1

CN[C@H](CC(C)C)C(=O)N[C@H]1C(=O)N[C@@H](CC(N)=O)C(=O)N[C@H]2C(=O)N[C@H]3C(=O)N[C@H](C(=O)N[C@H](C(=O)O)c4cc(O)cc(O)c4-c4cc3ccc4O)[C@H](O)c3ccc(c(Cl)c3)Oc3cc2cc(c3O[C@@H]2O[C@H](CO)[C@@H](O)[C@H](O)[C@H]2O[C@H]2C[C@](C)(N)[C@H](O)[C@H](C)O2)Oc2ccc(cc2Cl)[C@H]1O [Vancomycin, vancomycin]
% Resistant, CLSI ([1]; CLSI M100-S23 breakpoints): 0.0%
MIC50 [1]: 2 µg/mL (≈ 1.38 µM)
MIC90 [1]: 2 µg/mL (≈ 1.38 µM)
MIC Range [1]: 0.25 to 4 µg/mL
% Resistant, CLSI ([3]; CLSI M100-S23 breakpoints): 0.0%
% Susceptible, CLSI ([3]; CLSI M100-S23 breakpoints): 100.0%
% Resistant, EUCAST [3]: 0.0%
% Susceptible, EUCAST [3]: 100.0%
MIC50 [3]: 1 µg/mL (≈ 0.69 µM)
MIC90 [3]: 1 µg/mL (≈ 0.69 µM)
MIC Range [3]: 0.25 to 2 µg/mL
% Resistant, CLSI [4, 11]: 100.0%
% Susceptible, CLSI [4, 11]: 0.0%
% Resistant, EUCAST [4, 11]: 100.0%
% Susceptible, EUCAST [4, 11]: 0.0%
% Resistant, CLSI [4, 12]: 0.0%
% Susceptible, CLSI [4, 12]: 100.0%
% Resistant, EUCAST [4, 12]: 0.0%
% Susceptible, EUCAST [4, 12]: 100.0%
MIC50 [4, 16]: > 16 µg/mL
MIC90 [4, 16]: > 16 µg/mL
MIC50 [4, 17]: 1 µg/mL (≈ 0.69 µM)
MIC90 [4, 17]: 1 µg/mL (≈ 0.69 µM)
MIC ([4]; Enterococcus faecium, read-out: MIC values): > 4 µg/mL
MIC Range [4, 13]: >16 µg/mL
MIC Range [4, 14]: 0.5 to 4 µg/mL
MIC90 ([5]; Blood, N 84): > 32 µg/mL
MIC90 ([5]; Non-Blood, N 92): > 32 µg/mL
MIC90 ([6]; Blood, N 116): 2 µg/mL (≈ 1.38 µM)
MIC90 ([6]; Non-Blood, N 411): 2 µg/mL (≈ 1.38 µM)
MIC90 ([7]; Blood, N 53): 0.25 µg/mL (≈ 0.173 µM)
MIC90 ([7]; Non-Blood, N 282): 0.25 µg/mL (≈ 0.173 µM)
MIC90 ([8]; Blood, N 100): 0.5 µg/mL (≈ 0.345 µM)
MIC90 ([8]; Non-Blood, N 355): 0.5 µg/mL (≈ 0.345 µM)
% Resistant, CLSI [9, 15]: 0.9%
% Susceptible, CLSI [9, 15]: 99.1%
% Resistant, EUCAST [9, 18]: 0.9%
% Susceptible, EUCAST [9, 18]: 99.1%
% susceptible [9]: 99.1%
MIC50 [9]: 1 µg/mL (≈ 0.69 µM)
MIC90 [9]: 2 µg/mL (≈ 1.38 µM)
MIC50 ([10]; Blood, n = 108): 0.5 µg/mL (≈ 0.345 µM)
MIC90 ([10]; Blood, n = 108): 1 µg/mL (≈ 0.69 µM)
Mode (MIC) ([10]; Blood, n = 108): 0.5 µg/mL
Range (MIC) ([10]; Blood, n = 108, in µg/mL): 0.5-2
MIC50 ([10]; Respiratory, N = 157): 0.5 µg/mL (≈ 0.345 µM)
MIC90 ([10]; Respiratory, N = 157): 1 µg/mL (≈ 0.69 µM)
Mode (MIC) ([10]; Respiratory, N = 157): 0.5 µg/mL
Range (MIC) ([10]; Respiratory, N = 157): ≦0.25-1
MIC50 ([10]; Skin/Wound, N = 191): 0.5 µg/mL (≈ 0.345 µM)
MIC90 ([10]; Skin/Wound, N = 191): 1 µg/mL (≈ 0.69 µM)
Mode (MIC) ([10]; Skin/Wound, N = 191): 0.5 µg/mL
Range (MIC) ([10]; Skin/Wound, N = 191): ≦0.25-1
